Experimental findings from US7329651B2 (priority 2001, dated 2008) are described below.

Like-named read-outs stand apart in the source and are kept apart here.

For one series, the target named is T1, CB1 cannabinoid receptor (Rattus norvegicus, UniProt P20272).
T1 construct: membranes were prepared from rat forebrain membranes; from tissue; host or cells: rat forebrain
The series can be described thus: CB1 receptor binding, [3H] CP-55,940 displacement, rat forebrain membranes. The procedure:
(§1) The prepared cannabinoid compounds were tested for CB2 receptor binding affinity and for CB1 receptor affinity (to determine selectivity for the CB2 receptor). As used herein, “binding affinity” is represented by the IC50 value which is the concentration of an analog required to occupy the 50% of the total number (Bmax) of the receptors. The lower the IC50 value, the higher the binding affinity. […] The binding affinities (Ki) are expressed in nanomoles (nM).
For the CB1 receptor binding studies, membranes were prepared from rat forebrain membranes according to the procedure of P. R. Dodd et al; A Rapid Method for Preparing Synaptosomes: Comparison with Alternative Procedures, Brain Res., 107-118 (1981). The binding of the novel analogues to the CB1 cannabinoid receptor was assessed as described in W. A. Devane et al; Determination and Characterization of a Cannabinoid Receptor in a Rat Brain, Mol. Pharmacol., 34, 605-613 (1988) and A. Charalambous et al; “5′-azido ^8−THC: A Novel Photoaffinity Label for the Cannabinoid Receptor”, J. Med. Chem., 35, 3076-3079 (1992) with the following changes. The above articles are incorporated by reference herein.
Membranes, previously frozen at −80° C., were thawed on ice. To the stirred suspension was added three volumes of TME (25 mM Tris-HCl buffer, 5 mM MgCl2 and 1 mM EDTA) at a pH 7.4. The suspension was incubated at 40° C. for 30 min. At the end of the incubation, the membranes were pelleted and washed three times with TME.
(§2) The treated membranes were subsequently used in the binding assay described below. Approximately 30 μg of membranes were incubated in silanized 96-well microtiter plate with TME containing 0.1% essentially fatty acid-free bovine serum albumin (BSA), 0.8 nM [^3H] CP-55,940, and various concentrations of test materials at 30° C. for 1 hour. The samples were immediately filtered using a Packard Filtermate 196 and Whatman GF/C filterplates and washed with wash buffer (TME) containing 0.5% BSA. Radioactivity was detected using MicroScint 20 scintillation cocktail added directly to the dried filterplates, and the filterplates were counted using a Packard Instruments Top-Count. Nonspecific binding was assessed using 100 nM CP-55,940. Data collected from three independent experiments performed with duplicate determinations was normalized between 100% and 0% specific binding for [^3H] CP-55,940, determined using buffer and 100 nM CP-55,940. The normalized data was analyzed using a 4-parameter nonlinear logistic equation to yield IC50 values. Data from at least two independent experiments performed in duplicate was used to calculate IC50 values which were converted to Ki values using the using the assumptions of Cheng et al; “Relationship Between the Inhibition Constant (Ki) and the concentration of Inhibitor which causes 50% Inhibition (IC50) of an Enzymatic Reaction”, Biochem. Pharmacol., 22, 3099-3102, (1973), which is incorporated by reference herein.

The next series addresses T2, CB2 receptor (Mus musculus, UniProt P47936).
T2 construct: membranes were prepared from frozen mouse spleen; from tissue; host or cells: mouse spleen
Briefly: biochemical. It is filed as binding. Particulars: for Selectivity for CB2: ratio of CB1 Ki to CB2 Ki. The procedure: as §1, §2
For the CB2 receptor binding studies, membranes were prepared from frozen mouse spleen essentially according to the procedure of P. R. Dodd et al; “A Rapid Method for Preparing Synaptosomes: Comparison with Alternative Procedures”, Brain Res., 226, 107-118 (1981) which is incorporated by reference herein. Silanized centrifuge tubes were used throughout to minimize receptor loss due to adsorption. The CB2 binding assay was conducted in the same manner as the CB1 binding assay. The binding affinities (Ki) were also expressed in nanomoles (nM).

Setting [1] is: rat forebrain membranes, 0.8 nM [3H] CP-55,940, read-out: Ki(nM) CB1.
[2] abbreviates: mouse spleen membranes, [3H] CP-55,940, read-out: Ki(nM) CB2.

T1 sequence (P20272 whole entry): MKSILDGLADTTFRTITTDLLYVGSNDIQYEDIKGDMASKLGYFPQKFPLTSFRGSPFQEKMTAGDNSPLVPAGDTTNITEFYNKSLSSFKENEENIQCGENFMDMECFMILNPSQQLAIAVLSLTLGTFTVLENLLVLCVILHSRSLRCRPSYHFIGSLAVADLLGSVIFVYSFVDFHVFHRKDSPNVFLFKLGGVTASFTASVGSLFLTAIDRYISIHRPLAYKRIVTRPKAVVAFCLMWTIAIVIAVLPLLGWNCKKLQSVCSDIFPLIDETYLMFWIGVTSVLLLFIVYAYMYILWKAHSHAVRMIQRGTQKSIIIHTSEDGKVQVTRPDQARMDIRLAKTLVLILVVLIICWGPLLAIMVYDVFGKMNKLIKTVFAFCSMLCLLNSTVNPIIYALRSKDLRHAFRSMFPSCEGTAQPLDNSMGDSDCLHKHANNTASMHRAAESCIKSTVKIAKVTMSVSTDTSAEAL
T2 sequence (P47936 whole entry): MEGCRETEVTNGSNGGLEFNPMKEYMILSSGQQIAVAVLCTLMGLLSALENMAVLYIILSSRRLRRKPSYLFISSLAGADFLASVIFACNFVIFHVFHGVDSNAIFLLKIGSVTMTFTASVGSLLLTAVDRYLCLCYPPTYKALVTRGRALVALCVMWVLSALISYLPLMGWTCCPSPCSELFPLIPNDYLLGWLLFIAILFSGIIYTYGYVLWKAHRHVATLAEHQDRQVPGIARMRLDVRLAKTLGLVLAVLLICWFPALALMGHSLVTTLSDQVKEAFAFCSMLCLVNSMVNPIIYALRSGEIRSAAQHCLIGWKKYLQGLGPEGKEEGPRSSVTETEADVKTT

Consider `CCOC(=O)C1=NN(C(=O)c2ccccc2I)C(C(=O)OCC)=NN1C(=O)c1ccccc1I`, for which the melting point (as a rule, the temperature, or range, at which the solid turns liquid) is 186 to 187 °C.
Same read-out and setting: the same measure for `CCOC(=O)c1nnc(C(=O)OCC)c2c1[nH]c1ccccc12`: 151 to 152 °C.
With `COC(=O)C1=NN(c2ccccc2)C(C(=O)OC)=NN1c1ccccc1` [compound 1, Dimethyl 1,4-diphenyl-1,4-dihydro-1,2,4,5-tetrazine-3,6-dicarboxylate], the melting point is 171 to 172 °C. Besides, the Ki (usually the dissociation constant of the complex between target and ligand, obtained from inhibition or displacement) at CB1 cannabinoid receptor (setting [1]) came to 31000 nM. Besides, on CB2 receptor (setting [2]), the Ki came out at 381 nM. The “Selectivity for CB2” value at CB2 receptor is given as 81.
Taken in the same sequence, the figures for `CCCOC(=O)C1=NN(c2ccccc2)C(C(=O)OCCC)=NN1c1ccccc1` [compound 3, Dipropyl-1,4-diphenyl-1,4-dihydro-1,2,4,5-tetrazine-3,6-dicarboxylate] were 82.5 to 83 °C, 618 nM, 23.3 nM and 27.
For the compound `CC(=O)C1=NN(c2ccccc2)C(C(C)=O)=NN1c1ccccc1` [compound 4, 1,4-Diphenyl-1,4-dihydro-3,6-diacetyl-1,2,4,5-tetrazine], the inhibitory constant (Ki) at CB1 cannabinoid receptor (setting [1]) and at CB2 receptor was 10000 nM in each case. The “Selectivity for CB2” value at CB2 receptor stood at 1.
As for `NC(=O)C1=NN(c2ccccc2)C(C(N)=O)=NN1c1ccccc1` [compound 5], the Ki on CB1 cannabinoid receptor (setting [1]) and at CB2 receptor (setting [2]) was 10000 nM each time. In addition, the “Selectivity for CB2” value on CB2 receptor is 1.
In turn, `CN(C)C(=O)C1=NN(c2ccccc2)C(C(N)=O)=NN1c1ccccc1` [compound 6, N,N-Dimethyl-1,4-diphenyl-1,4-dihydro-1,2,4,5-tetrazine-3,6-dicarboxylic di-amide] returned a melting point of 243 to 243.5 °C.
Take `CNC(=O)C1=NN(c2ccccc2)C(C(=O)NC)=NN1c1ccccc1` [compound 6]: the inhibition constant Ki on CB1 cannabinoid receptor (setting [1]) was determined as 66000 nM. Further, the “Selectivity for CB2” value at CB2 receptor turned out to be 1.
`CCN(CC)C(=O)C1=NN(c2ccccc2)C(C(N)=O)=NN1c1ccccc1` [compound 7, N,N-Diethyl-1,4-diphenyl-1,4-dihydro-1,2,4,5-tetrazine-3,6-dicarboxylic di-amide] gave a melting point of 239 to 240 °C.
In the case of `CCNC(=O)C1=NN(c2ccccc2)C(C(=O)NCC)=NN1c1ccccc1` [compound 7], the inhibition constant (Ki) at CB1 cannabinoid receptor (setting [1]) was found to be 100000 nM. The “Selectivity for CB2” value on CB2 receptor is reported as 1.
On to `O=C(C1=NN(c2ccccc2)C(C(=O)N2CCCCC2)=NN1c1ccccc1)N1CCCCC1` [compound 9], for which the inhibition constant Ki came out at 9990 nM on CB1 cannabinoid receptor (setting [1]) and 221 nM on CB2 receptor (setting [2]). Also, the “Selectivity for CB2” value at CB2 receptor is listed as 42.
In turn, `CC(CO)NC(=O)C1=NN(c2ccccc2)C(C(=O)NC(C)CO)=NN1c1ccccc1` (centres unmarked) [compound 10] returned a melting point of 262 to 263 °C. The Ki at CB1 cannabinoid receptor (setting [1]) turned out to be 100000 nM. Further, the “Selectivity for CB2” value on CB2 receptor turned out to be 1.
Compound `CC1C(NC(=O)C2=NN(c3ccccc3)C(C(=O)NC3CC4CC(C3C)C4(C)C)=NN2c2ccccc2)CC2CC1C2(C)C` (centres unmarked) [compound 11] registered an inhibitory constant (Ki) at CB1 cannabinoid receptor of 100000 nM. The “Selectivity for CB2” value on CB2 receptor came out at 1.
Consider `CCOC(=O)C1=NN(c2ccccc2)C(C(C)=O)=NN1c1ccccc1` [compound 12, 1,4-Diphenyl-1,4-dihydro-1,2,4,5-tetrazine-3-aceto-6-carboxylic acid ethyl ester], for which the Ki on CB1 cannabinoid receptor (setting [1]) was determined as 7700 nM; on CB2 receptor (setting [2]) it was 327 nM. Besides, at CB2 receptor, the “Selectivity for CB2” value is recorded as 24.
Consider `CCOC(=O)C1=NN(c2ccccc2)C(C(=O)N2CCCCC2)=NN1c1ccccc1` [compound 13, 1,4-Diphenyl-1,4-dihydro-1,2,4,5-tetrazine-3-carboxylic N-isopinocampheyl amide-6-carboxylic ethyl ester], for which the inhibition constant Ki at CB1 cannabinoid receptor (setting [1]) amounted to 5040 nM; on CB2 receptor (setting [2]), 255 nM. Further, on CB2 receptor, the “Selectivity for CB2” value is 20.
Take `CCOC(=O)C1=NN(c2ccccc2)C(C(=O)NC2CC3CC(C2C)C3(C)C)=NN1c1ccccc1` (centres unmarked) [compound 14, 1,4-Diphenyl-1,4-dihydro-1,2,4,5-tetrazine-3-carboxylic N-piperidinyl amide-6-carboxylic acid ethyl ester]: the Ki at CB1 cannabinoid receptor is 2050 nM; at CB2 receptor (setting [2]), 805 nM. In addition, the “Selectivity for CB2” value on CB2 receptor is 2.6.
Take `CCOC(=O)C1=NN(c2ccc([N+](=O)[O-])cc2)C(C(=O)OCC)=NN1c1ccc([N+](=O)[O-])cc1` [compound 15]: the Ki on CB1 cannabinoid receptor was 100000 nM.
On to `CCOC(=O)C1=NN(c2ccc(Cl)cc2)C(C(=O)OCC)=NN1c1ccc(Cl)cc1` [compound 16, 1,4-Di-(4-chlorophenyl)-1,4-dihydro-1,2,4,5-tetrazine-3,6-dicarboxylic acid diethyl ester], for which the Ki turned out to be 208 nM on CB1 cannabinoid receptor (setting [1]) and 48 nM on CB2 receptor (setting [2]). For the same compound, on CB2 receptor, the “Selectivity for CB2” value is on record as 4.3.
On to `CCOC(=O)C1=NN(c2ccc(Br)cc2)C(C(=O)OCC)=NN1c1ccc(Br)cc1` [compound 17], for which the inhibitory constant (Ki) came to 350 nM on CB1 cannabinoid receptor (setting [1]) and 200 nM at CB2 receptor (setting [2]).
Regarding `CCOC(=O)C1=NN(c2ccc(OC)cc2)C(C(=O)OCC)=NN1c1ccc(OC)cc1` [compound 18], the inhibitory constant (Ki) on CB1 cannabinoid receptor (setting [1]) came out at 4590 nM; at CB2 receptor (setting [2]), 72 nM. The “Selectivity for CB2” value at CB2 receptor is reported as 64.
The matching figures for `CCOC(=O)C1=NN(c2ccc(Cl)cc2Cl)C(C(=O)OCC)=NN1c1ccc(Cl)cc1Cl` [compound 19]: 10000 nM, 10000 nM and 1.
`CCOC(=O)C1=NN(c2cccc3ccccc23)C(C(=O)OCC)=NN1c1cccc2ccccc12` [compound 20, 1,4-Di-(α-naphthalene)-1,4-dihydro-1,2,4,5-tetrazine-3,6-dicarboxylic acid diethyl ester] gave a melting point of 129 to 130 °C. Besides, on CB1 cannabinoid receptor (setting [1]), the inhibitory constant (Ki) amounted to 1e+06 nM. Moreover, the Ki at CB2 receptor (setting [2]) turned out to be 1910 nM. Besides, the “Selectivity for CB2” value on CB2 receptor is recorded as 524.
Consider `CCOC(=O)C1=NN(C(=O)c2ccccc2)C(C(=O)OCC)=NN1C(=O)c1ccccc1` [compound 21, 1,4-Dibenzoyl-1,4-dihydro-1,2,4,5-tetrazine-3,6-dicarboxylic acid diethyl ester], for which the melting point was 133.5 to 134 °C. Also, the Ki on CB1 cannabinoid receptor (setting [1]) was found to be 100000 nM. Besides, the “Selectivity for CB2” value at CB2 receptor came to 1.
Turning to `CCOC(=O)C1=NN(c2ccc(Cl)cc2)C(C(=O)OCC)=NN1c1ccccc1` [compound 22, 1-(4-chlorophenyl)-4-phenyl-1,4-dihydro-1,2,4,5-tetrazine-3,6-dicarboxylic acid diethyl ester], the figures for the Ki at CB1 cannabinoid receptor (setting [1]) and at CB2 receptor (setting [2]) were 1500 nM and 43 nM, respectively. In addition, the “Selectivity for CB2” value on CB2 receptor was determined as 34.
In turn, `CCOC(=O)C1=NN(c2ccc(Br)cc2)C(C(=O)OCC)=NN1c1ccc(Cl)cc1` [compound 23] had a melting point of 130 to 131 °C. In addition, the inhibition constant (Ki) on CB1 cannabinoid receptor (setting [1]) worked out at 542 nM. Moreover, the inhibitory constant (Ki) on CB2 receptor (setting [2]) came to 30 nM. Also, the “Selectivity for CB2” value at CB2 receptor is on record as 18.
For the compound `CCOC(=O)C1=NN(c2cccc3ccccc23)C(C(=O)OCC)=NN1c1ccccc1` [compound 24, 1-Phenyl-4-α-naphthalenyl-1,4-dihydro-1,2,4,5-tetrazine-3,6-dicarboxylic acid diethyl ester], the Ki on CB1 cannabinoid receptor (setting [1]) turned out to be 7360 nM; at CB2 receptor (setting [2]) it was 182 nM. Moreover, the “Selectivity for CB2” value on CB2 receptor came out at 40.
The matching figures for “N,N-Dibutyl-1,4-diphenyl-1,4-dihydro-1,2,4,5-tetrazine-3,6-dicarboxylic di-amide [compound 8]”: 16000 nM, 692 nM and 23.
